# Assays:
# [1] = system: Factor VII; assay: In vivo gene-silencing dose-response, UsiRNA against Factor VII in formulation, tail-vein injection; design: species or system mouse; conditions: normal Balb/c mice, single tail-vein IV injection, serum F-VII at 48 hr post dose; dose as active UsiRNA per kg; formulated with cholesterol, C18:2-DAB-C16, DSPE-PEG2k 51:31:17:1 mole %
# Procedure: In FIG. 1 is shown a chart of the gene-silencing dose-response in vivo mouse for a UsiRNA against Factor VII administered by tail-vein injection in a formulation including the activity-generating delivery molecule C18:2-DAP(N,N-diMe)-C18:2. The calculated ED50 was 30 μg/kg. The x-axis of FIG. 1 refers to mgA/kg which is by pharmaceutical convention the mg of active UsiRNA per kg body weight. Here it refers to the fraction of UsiRNA that is duplexed, and encapsulated or carried by the activity-generating delivery molecules.
# Animals were each administered a single tail-vein IV injection, and sacrificed at 48 hr post dose for analysis of serum F-VII.
# The activity-generating molecule C18:2-DAP(N,N-diMe)-C18:2 was formulated with cholesterol, a second activity-generating molecule C18:2-DAB-C16, and DSPE-PEG2k at concentrations of 51:31:17:1 mole %, respectively.
# [2] = TNS dye assay for pKa; format: physicochemical; conditions: pH 3.0 to 11.0, 30 min at 37° C.; for pKa: liposomes of the lipid with TNS dye in universal buffer, pH 3, liposome test sample, read-out: pKa as measured by TNS dye assay; for pKa as measured by TNS dye assay: liposome test sample
# Procedure: To measure pH responsive fluorescence, a TNS/Liposome reaction mixture was prepared as follows: 16 μL of TNS at 1 mg/mL (dissolved in 20% DMF), 160 μL of liposome test sample at 1 mM and 3824 μL of H20. Briefly, in a Costar 96 well plate; 100 μL/well of 2× universal buffer was added (50 mM Citrate; 40 mM sodium phosphate; 40 mM ammonium acetate; 300 mM NaCl, the 2× buffer was titrated to different pHs, at 0.5 pH increments from pH 3.0 to pH 11.0 using NaOH or HCl). To each well containing the 100 of universal buffer, 100 μL of the TNS/Liposome reaction mixture is then added to achieve a final volume of 200 μL, a TNS concentration of 5.92 μM and a final lipid concentration of 20 μM per well. After 30 min at 37° C. the fluorescence was read at an excitation wavelength of 322 nm and emission wavelength of 431 nm. The pKa was determined at the pH corresponding to the midpoint between the maximum and the minimum fluorescence intensity, utilizing sigmoidal fit software.
# TNS dye (2,6-TNS (2-(p-toluidinyl)naphthalene-6-sulfonic acid, sodium salt; Invitrogen T53; MW 335.4).
# [3] = system: ApoB in Hep3B cells; assay: In vitro gene silencing activity, formulation with UsiRNA against ApoB in Hep3B cells, quantitative RT-PCR; format: cell-based; conditions: UsiRNA DX10008, Hep3B, 24 h
# Procedure: The methodology for determining the in vitro gene silencing activity of an activity-generating delivery molecule was as follows: Hep3B cells were transfected in triplicate, 96-well format with a formulation of the activity-generating delivery molecule and a UsiRNA against ApoB. After 24 h, cellular RNA was prepared and evaluated by quantitative RT-PCR for target ApoB and the normalizer 36B4 or GAPDH expression levels.
# The in vitro activity was generated with a UsiRNA against ApoB in Hep3B cells.
# [4] = system: Factor VII mRNA; assay: In vivo gene knockdown in Balb/c mice, tail-vein injection of formulation with UsiRNA; design: species or system mouse; conditions: DMPE-PEG2k 2 mole %, UsiRNA against Factor VII mRNA
# Source text: In vivo gene knockdown activity was generated in Balb/c mice administered by tail-vein injection with a formulation including the activity-generating delivery molecule and a UsiRNA against Factor VII mRNA.
# [5] = DSC measurement of 2nd melting behavior; format: physicochemical; conditions: heat/cool/heat cycle
# Procedure: The 2nd melting behavior of activity-generating delivery molecules was assessed on a TA Instruments Q200 Differential Scanning calorimeter in a heat/cool/heat cycle by weighing 0.5 to 1.5 mg of the powder into an aluminum pan and heating to 175° C. at 20° C./min., cooling to −50° C. at 10° C./min., and heating to 200° C. at 20° C./min.
# Without intending to be bound by any particular theory, the melting behavior of an activity-generating delivery molecule may relate to its ability to form lamellar, bilayer, or other ordered structures which can be useful for carrying an active agent to interact with, and enter a cellular compartment to generate pharmacological or biological activity. […] A substance having less ordered structures may provide greater membrane fusion ability which can be needed for delivery of the active agent to a cell. Thus, differential scanning calorimetry can be used to distinguish the properties of compounds with certain significant thermotropic phases or transitions from compounds with different properties and less significant thermotropic phases or transitions.
# [6] = delivery molecule 25.00 mole %, CHOL 75.00 mole %
# [7] = delivery molecule 33.33 mole %, DOPE 66.66 mole %
# [8] = delivery molecule 50.00 mole %, CHOL 50.00 mole %
# [9] = delivery molecule 50.00 mole %, DOPE 50.00 mole %
# [10] = delivery molecule 66.66 mole %, CHOL 33.33 mole %
# [11] = delivery molecule 66.66 mole %, DOPE 33.33 mole %
# [12] = delivery molecule 75.00 mole %, DOPE 25.00 mole %
# [13] = delivery molecule 25.00 mole %, DOPE 75.00 mole %
# [14] = delivery molecule 33.33 mole %, CHOL 66.66 mole %
# [15] = delivery molecule 75.00 mole %, CHOL 25.00 mole %
Structure (SMILES),"calculated ED50, gene silencing in vivo [1]",pKa [2],"In vitro Gene Knockdown % [3, 6]","In vitro Gene Knockdown % [3, 7]","In vitro Gene Knockdown % [3, 8]","In vitro Gene Knockdown % [3, 9]","In vitro Gene Knockdown % [3, 10]","In vitro Gene Knockdown % [3, 11]","In vitro Gene Knockdown % [3, 12]","In vitro Gene Knockdown % [3, 13]","In vitro Gene Knockdown % [3, 14]","In vitro Gene Knockdown % [3, 15]",pKa as measured by TNS dye assay [2],"In vivo Gene Knockdown % ([4]; delivery molecule 49 mole %, CHOL 49 mole %)","In vivo Gene Knockdown % ([4]; delivery molecule 65.3 mole %, CHOL 32.7 mole %)","2nd melting behavior, thermal transitions by differential scanning calorimetry [5]"
CCCCC/C=C\C/C=C\CCCCCCCCNC(=O)C(CN(C)C)NC(=O)CCCCCCC/C=C\C/C=C\CCCCC (stereo not drawn),30 µg/kg,5.8,6%,86%,19%,87%,19%,81%,18%,,,,,,,
"CCCCCCCC/C=C\CCCCCCCCNC(=O)C(CN)NC(=O)CCCCCCC/C=C\CCCCCCCC (stereo not drawn) [C18:1-DAP(NH3 + Cl—)-C18:1, N-(3-amino-1-((Z)-octadec-9-en-1-ylamino)-1-oxopropan-2-yl)oleamide]",,6,83%,83%,73%,82%,76%,72%,77%,81%,80%,79%,,,,
"CCCCC/C=C\C/C=C\CCCCCCCCNC(=O)C(N)NC(=O)CCCCCCC/C=C\C/C=C\CCCCC (stereo not drawn) [C18:2-DAA-C18:2, (9Z,12Z)—N-(1-amino-2-((9Z,12Z)-octadeca-9,12-dien-1-ylamino)-2-oxoethyl) octadeca-9,12-dienamide]",,4.9,,,,,,,,,,,,,,
"CCCCCC=CCC=CCCCCCCCC(=O)NC(CN(C)C)C(=O)NCCCCCCCCC=CCCCCCCCC (stereo not drawn) [C18:2-DAP(Me,Me)-C18:1]",,,90%,87%,88%,84%,91%,85%,84%,86%,91%,,5.3,,,
"CCCCC/C=C\C/C=C\CCCCCCCCNC(=O)C(CN)NC(=O)CCCCCCC/C=C\C/C=C\CCCCC (stereo not drawn) [C18:2-DAP-C18:2, (9Z,12Z)—N-(3-amino-1-((9Z,12Z)-octadeca-9,12-dien-1-ylamino)-1-oxopropan-2-yl)octadeca-9,12-dienamide]",,7.6,,,,,,,,,,,,,,
"CCCCC/C=C\C/C=C\CCCCCCCC(=O)NC(CN)C(=O)NCCCCCCCC/C=C\CCCCCCCC (stereo not drawn) [C18:2-Dap(NH3 + Cl—)-C18:1, (9Z,12Z)—N-(3-amino-1-((Z)-octadec-9-en-1-ylamino)-1-oxopropan-2-yl)octadeca-9,12-dienamide]",,,64%,83%,56%,83%,61%,69%,48%,85%,62%,52%,,,,
"CCCCC/C=C\C/C=C\CCCCCCCCNC(=O)C1CC(N(C)C)CN1C(=O)CCCCCCC/C=C\C/C=C\CCCCC (stereo not drawn) [C18:2-aminoPro(N—Me,N—Me)-C18:2]",,,79%,74%,62%,82%,53%,73%,68%,66%,72%,59%,6.6,68%,48%,
"CCCCC/C=C\C/C=C\CCCCCCCCNC(=O)C(CCN)NC(=O)CCCCCCC/C=C\C/C=C\CCCCC (stereo not drawn) [C(18:2)oleoyl-DAB-C(18:2)alkenylamino, (9Z,12Z)—N-(4-amino-1-((9Z,12Z)-octadcca-9,12-dien-1-ylamino)-1-oxobutan-2-yl) octadeca-9,12-dienamide]",,,,,,,,,,,,,,,,complete lack of thermal transition peaks
"CCCCCCCCCCCCCCCCCCNC(=O)C(CCNC(=N)N)NC(=O)CCCCCCCCCCCCCCCCC (stereo not drawn) [CH3(CH2)16(CO)-norArg-NH(CH2)17CH3, reference compound]",,,,,,,,,,,,,,,,presence of significant thermal or melting transitions
